Measured values reported in US20070009597A1, “Active substance combination comprising a compound with npy receptor affinity and a compound with 5-ht6 receptor affinity” (LABORATORIOS DEL DR. ESTEVE S.A., priority 2003, published 2007).

melting point: 166 to 168 °C
Structure (SMILES): CN(C)CCn1ccc2cc(NS(=O)(=O)c3cccc4nsnc34)ccc21 [Example 10e, N-[1-(2-dimethylaminoethyl)-1H-indole-5-yl]-benzo[1,2,5]thiadiazole-4-sulfonamide]
